Measurements: publication PMC4302236, “Functional profile of a novel modulator of serotonin, dopamine, and glutamate neurotransmission” (Psychopharmacology, 2014)
Marks after values point to notes of the source that are not given here.

Legend:
[1] = tested on: D-AMPH-induced hyperactivity; test: Inhibition of D-amphetamine-induced hyperactivity; format: in vivo; settings: rats, p.o.; D-AMPH 1 mg/kg i.p.; distance traveled over 2 h
Experimental: Male Sprague–Dawley rats (200–250 g, N=4/treatment group) were habituated to Lucite locomotor activity chambers comprising an AccuScan activity monitoring system (AccuScan Instruments, Inc., Columbus, OH) were maintained in a quiet observation room kept under low light conditions. […] The rats were briefly removed from the activity chambers 60 min later to receive an injection of D-amphetamine hydrochloride (D-AMPH; 1 mg/kg in 1 ml/kg, i.p.). The animals were returned to the activity chambers, and locomotor activity was then recorded for 2 h using system software. Activity was quantitated as distance traveled (cm) over 2 h for each group. Inhibitory activity was calculated as the percent of total activity observed at each dose level of each drug versus animals receiving D-AMPH alone. An ID50 for inhibition of D-AMPH-induced hyperactivity was calculated for each compound.

[2] = tested on: serine 40 (S40)-phosphorylated tyrosine hydroxylase; test: Striatal tyrosine hydroxylase S40 phosphorylation state (CNSProfile immunoblotting); format: in vivo; settings: mice, acute; ITI-007 3 mg/kg p.o., clozapine 5 i.p., aripiprazole 10 p.o., olanzapine 1 i.p., risperidone 3 p.o., haloperidol 1 i.p.; over 60 min; vs vehicle
Experimental: The effect of the selected compounds on the phosphorylation state of tyrosine hydroxylase (TH) was measured and quantitated as an indicator of the potential of each compound to perturb presynaptic dopamine synthesis in striatum. […] This technique preserves in vivo levels of brain protein phosphorylation ([Zhu et al. 2010]). […] Small aliquots of the homogenate were retained for protein determination by the bicinchoninic acid (BCA) protein assay method (Pierce Chemical Co., Rockford, IL). […] Immunoblotting was carried out using a phos-phorylation state-specific polyclonal antibody raised against […] (S40)-phosphorylated tyrosine hydroxylase (Chemicon, Temecula, CA) and a pan-TH monoclonal antibody for measuring the total protein levels (BD Biosciences, San Jose, CA). […] Antibody binding was detected and quantitated using a LiCor Odyssey infrared fluorescent detection system. Phosphorylation at each site detected by phospho-specific antibodies was quantified, normalized to total levels of the protein (non-phosphorylated), and expressed as percent±SEM of the level of phosphorylation in vehicle-treated control mice (N=6).

[3] = tested on: striatal dopamine metabolism; test: Striatal dopamine metabolism (HPLC-EC of DA, DOPAC, HVA); format: in vivo, mice; settings: for DOPAC/DA, chronic (21 day) dosing, mean / HVA/DA, chronic (21 day) dosing, mean: striatum 2 h after last dose; for DOPAC/DA, acute (2 h) dosing, mean / HVA/DA, acute (2 h) dosing, mean: striatum 2 h after dose
Experimental: Measurements of tissue dopamine levels were performed at CDC-NIOSH. […] Striatum was rapidly dissected from each mouse brain, weighed, and placed into Eppendorf tubes that were frozen in liquid nitrogen and stored at -80 °C. […] Tissues were homogenized in 100 μl of ice-cold 0.2 M perchloric acid containing 1 μM dihydroxybenzylamine (DHBA) as an internal standard and centrifuged at 10,000×g for 10 min at 4 °C. The supernatant was filtered through a 0.2 μm nitrocellulose membrane, and an aliquot (10 μl) was injected from a temperature-controlled (4 °C) automatic sample injector (Waters 717plus Autosampler) connected to a Waters 515 HPLC pump. Catecholamines were separated on a C18 reverse-phase column ([…]; Waters […] 25 cm×4.6 mm; 5 μm), electrochemically detected (Waters 464 Pulsed Electrochemical Detector; range 10 nA, potential +0.7 V), and analyzed using Millennium software. […] A flow rate of 1 ml/min was used. […] The recovery of each analyte was adjusted with respect to the internal standard and quantified from a standard curve. The levels of dopamine and its metabolites, DOPAC and HVA, were calculated from the AUC values for each (based on microgram per gram (μg/g) tissue wet weight) and expressed as a percent of the saline control.

extracellular dopamine = test: In vivo microdialysis of dopamine and DOPAC in striatum and prefrontal cortex; settings: rats
Experimental: On the day of the experiment (24–48 h after surgery), the microdialysis probes of each animal were connected via the use of flexible PEEK tubing to a microperfusion pump (Harvard Apparatus, PHD 2000 Holliston, MA). Artificial CSF, composed of 147 mM NaCl, 3 mM KCl, 1.2 mM CaCl2, and 1.2 mM MgCl2 was used to perfuse the probes (1.5 μl/min) beginning at 75 min prior to drug treatment. Baseline dialysate collection was begun for all rats 60 min prior to drug administration (t=−60 min) such that a total of […] were collected prior to drug treatment (t=0). […] A control group of rats (N=9) received only the 0.5 % methylcellulose vehicle solution, delivered orally (p.o.). All drug solutions were delivered in a volume of 1 ml/kg of body weight. Every 20 min for the following 3 h, dialysate was collected from both brain regions of each rat. Dialysates were collected into mini-vials containing 7.5 μl of 0.02 M formic acid using an automated fraction collector Univentor 820, Malta. Tubes containing dialysate samples were then frozen at −80 °C until analyzed by HPLC for levels of dopamine and the dopamine metabolite, DOPAC. […] Coronal sections were prepared of each rat brain to verify the position of the dialysis collection probes. Dopamine and DOPAC concentrations were determined in each sample using HPLC separation and electrochemical detection. An aliquot (20 μl) of each dialysate sample was injected onto the HPLC column by means of a refrigerated microsampler system, consisting of a syringe pump (Gilson, model 402), a multi-column injector (Gilson, model 233 XL), and a temperature regulator (Gilson, model 832). The chromatographic separation was performed on a reverse-phase 150 ×2.1 mm (3 μm) C18 Thermo BDS Hypersil column (Keystone Scientific). […] The mobile phase was run at a flow rate of 0.35 ml/min using an HPLC pump (Shimadzu, model LC-10AD vp). Dopamine and DOPAC were electrochemically detected using a potentiostat (Antec Leyden, model Intro) fitted with a glassy carbon electrode set a +500 mV versus Ag/AgCl (Antec, Leyden). Data were analyzed using Chromatography Data System software (Shimadzu, Class-VP, Japan) using an external standard method to quantify concentrations of dopamine and DOPAC. […] Drug effects were expressed as percentages of basal level (mean±SEM) within the same subject. Statistical analysis was performed using Sigmastat for Windows (SPSS Corporation). Drug effects were compared with baseline and vehicle control using a two-way ANOVA for repeated measurements followed by the Newman–Keuls post hoc test. […] For all tests, the level of statistical significance was set at p<0.05.

[4] = tested on: GluN2B phosphorylated at tyrosine (Y) 1472; test: GluN2B Y1472 phosphorylation state in nucleus accumbens; format: in vivo; settings: mice, 1 mg/kg p.o., 120 min after administration
Experimental: Brains were rapidly removed from the skull. […] Brain tissue was prepared for SDS-PAGE as described above, and protein homogenates (15 μg) were separated on 3-7 % gradient gels, and proteins transferred to nitrocellulose membranes. Portions of each membrane were immunoblotted for GluN2B phosphorylated at […] (rabbit polyclonal) and total GluN2B (mouse monoclonal) (Thermo Fisher Scientific, Rockford, IL).

forelimb catalepsy = test: Forelimb catalepsy, bar grip test; settings: mice, 3 mg/kg p.o.; each time point (120-360 min); vs vehicle
Experimental: Forelimb catalepsy was measured using the bar grip test. Mice were placed in a Lucite mouse cage outfitted with a 3-mm diameter wooden rod suspended 4 cm from the floor of the cage. During testing, the mouse was allowed to grip the bar firmly with hind legs placed firmly on the floor of the cage. The mouse was required to maintain this posture for at least 10 s for a valid test session. Catalepsy was then quantitated by recording the latency (in seconds) to step both front paws down to the floor of the cage up to a maximum time of 120 s. If the mouse stepped off the bar immediately (less than 10 s), another attempt was made up to a maximum of ten attempts. The longest duration of immobility was recorded if none of the ten attempts were beyond 10 s. Catalepsy was measured for each mouse at 2, 3, 4, and 6 h after drug administration. Mean forelimb catalepsy time (in seconds) was calculated across each group and time point. Data were analyzed using ANOVA with Newman–Keuls post hoc test.

[5] = 1 mg/kg p.o. once daily 21 days
[6] = 3 mg/kg p.o. once daily 21 days
[7] = 30 mg/kg p.o. once daily 21 days
[8] = 10 mg/kg p.o. once daily 21 days

Structure (SMILES) | ID50, inhibition of D-AMPH-induced hyperactivity [1] [mg/kg] | Effect on TH phosphorylation at S40 in striatum [2] | DOPAC/DA, chronic (21 day) dosing, mean [3, 5] | HVA/DA, chronic (21 day) dosing, mean [3, 5] | DOPAC/DA, acute (2 h) dosing, mean ([3]; 1 mg/kg p.o. once) | HVA/DA, acute (2 h) dosing, mean ([3]; 1 mg/kg p.o. once) | DOPAC/DA, chronic (21 day) dosing, mean [3, 6] | HVA/DA, chronic (21 day) dosing, mean [3, 6] | DOPAC/DA, acute (2 h) dosing, mean ([3]; 3 mg/kg p.o. once) | HVA/DA, acute (2 h) dosing, mean ([3]; 3 mg/kg p.o. once) | also measured
O=C(CCCN1CCC(O)(c2ccc(Cl)cc2)CC1)c1ccc(F)cc1 [Haloperidol] | 0.04 | significantly increase | 18.26 ^*, ^**, ^*** | 29.23 ^*, ^**, ^*** | 19.69 ^*, ^**, ^*** | 31.04 ^*, ^**, ^*** | 17.00 ^*, ^**, ^*** | 24.15 ^*, ^**, ^*** | 22.68 ^*, ^**, ^*** | 28.14 ^*, ^**, ^*** | DA and DOPAC efflux in striatum (extracellular dopamine; 0.3 mg/kg s.c., p<0.001 vs vehicle): significant increase; DA and DOPAC levels in mPFC (extracellular dopamine; 0.3 mg/kg s.c., p<0.01 (DA), p<0.001 (DOPAC) vs vehicle): elevated; GluN2B phosphorylation at Y1472 in nucleus accumbens [4]: 177±28 % of control; Forelimb catalepsy, bar grip test (forelimb catalepsy): profound forelimb catalepsy
CN1CCN(C2=Nc3cc(Cl)ccc3Nc3ccccc32)CC1 [Clozapine] |  | did not significantly affect |  |  |  |  |  |  |  |  | 
O=C1CCc2ccc(OCCCCN3CCN(c4cccc(Cl)c4Cl)CC3)cc2N1 [Aripiprazole] | 4.65 | did not significantly affect |  |  |  |  | 8.27 ^*, ^** | 12.14 ^* | 8.57 | 12.63 | DOPAC/DA, chronic (21 day) dosing, mean [3, 7]: 7.25 ^*, ^**; HVA/DA, chronic (21 day) dosing, mean [3, 7]: 12.32 ^*; DOPAC/DA, acute (2 h) dosing, mean ([3]; 30 mg/kg p.o. once): 11.89; HVA/DA, acute (2 h) dosing, mean ([3]; 30 mg/kg p.o. once): 11.20; DA or DOPAC efflux in striatum or mPFC (extracellular dopamine; 30 mg/kg p.o.): did not significantly affect
Cc1cc2c(s1)Nc1ccccc1N=C2N1CCN(C)CC1 [Olanzapine] |  | significantly increase |  |  |  |  |  |  |  |  | 
Cc1nc2n(c(=O)c1CCN1CCC(c3noc4cc(F)ccc34)CC1)CCCC2 [Risperidone] | 0.33 | significantly increase | 16.35 ^*, ^**, ^*** | 29.37 ^*, ^**, ^*** | 14.35 ^*, ^**, ^*** | 30.71 ^*, ^**, ^*** |  |  |  |  | DOPAC/DA, chronic (21 day) dosing, mean [3, 8]: 25.12 ^*, ^**, ^***; HVA/DA, chronic (21 day) dosing, mean [3, 8]: 36.39 ^*, ^**, ^***; DOPAC/DA, acute (2 h) dosing, mean ([3]; 10 mg/kg p.o. once): 30.98 ^*, ^**, ^***; HVA/DA, acute (2 h) dosing, mean ([3]; 10 mg/kg p.o. once): 23.06 ^*, ^**, ^***
